Assay results published in PMC6701825, “Antiproliferative and Antimigratory Effects of a Novel YAP–TEAD Interaction Inhibitor Identified Using in Silico Molecular Docking” (Journal of Medicinal Chemistry, 2019).

How the values were obtained:
MCF7 cells = experiment: EdU proliferation assay in MCF7 cells; format: cell-based, human; conditions: MCF7, YAP-TEAD-independent growth, 18 hours then 6 hours EdU
Method: Cell proliferation was measured using the Click-iT EdU 488 assay (Sigma-Aldrich). Briefly, the cells were treated with indicated concentrations of compounds for 24 h with the last 4 h being in the presence of 10 μM EdU. The cells were fixed in 4% formaldehyde and stained for EdU incorporation, following the kit’s standard protocol. The cells were counterstained with Hoechst 33342 nucleic acid for 20 min. Fluorescent images of at least three fields of view per well were counted using ImageJ software. Real-time analysis of cell migration was performed using an IncuCyte ZOOM live cell imaging system (Essen BioScience) according to the manufacturer’s instructions. Briefly, the cells were seeded (1.2 × 10^4 cells/well for HeLa cells, 1.5 × 10^4 cells/well for RaVSMCs, and 1 × 10^4 cells/well) into ImageLock 96-well plates. After 36 h, the cells were pretreated overnight with indicated concentrations of compounds. The wells were scratched using a WoundMaker tool, and the media were replaced containing test compounds. Phase contrast images of cell migration into the wounded area were acquired hourly for 24 h. Relative wound confluence was calculated using the Cell Migration Image analysis module of the IncuCyte ZOOM software. […]
MCF7 cells were incubated with the indicated concentrations of CPD3.1 (n=3). […] Edu incorporation in to newly synthesised DNA was detected using the Edu-Click detection kit. […]

[1] = target: T1, binding of endogenous YAP protein to recombinant GST-TEAD1 (Homo sapiens, UniProt P28347); experiment: In vitro GST-TEAD1-YAP interaction (pull-down) assay; conditions: 200 μM compound, HEK293 lysate, 18 h at 4 °C, Western blot
T1 construct: human TEAD1 (corresponding to residues 194–411); made in house; host or cells: SoluBL21 Escherichia coli (GST-TEAD1); HEK293 lysate (endogenous YAP)
T1 sequence (P28347 209-426): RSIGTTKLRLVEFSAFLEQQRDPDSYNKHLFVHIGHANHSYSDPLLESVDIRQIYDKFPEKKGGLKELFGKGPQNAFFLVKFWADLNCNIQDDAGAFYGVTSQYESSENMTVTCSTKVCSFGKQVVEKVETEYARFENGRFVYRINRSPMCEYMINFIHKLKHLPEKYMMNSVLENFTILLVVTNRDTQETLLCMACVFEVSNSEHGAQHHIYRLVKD
Description: We next tested the ability of these four compounds to inhibit the binding of endogenous YAP protein present in HEK293 whole cell lysate to recombinant glutathione S-transferase (GST)–TEAD1 protein immobilized on glutathione resin beads. […] Inhibition of YAP binding to TEAD1 in the presence of CPD3 was further confirmed using co-immunoprecipitation assays using mammalian cell lysates prepared from HeLa expressing myc-TEAD1 and GFP–YAP. […] We next set up a 96-well plate-based YAP–TEAD interaction assay to determine the IC50 of the inhibition of the YAP–TEAD complex by CPD3.
The DNA fragment encoding human TEAD1 (corresponding to residues 194–411) was amplified by polymerase chain reaction (PCR) and cloned into the BamH1 and EcoR1 sites of vector pGEX-6P1, in frame with the terminal GST tag. GST–TEAD1 fusion protein expression was induced in SoluBL21s Escherichia coli by culture at 25 °C in the presence of 0.2 mM IPTG for 18 h. […] Bound proteins were eluted by boiling in Laemmli sample buffer and YAP and GST–TEAD levels quantified by Western blotting with an anti-YAP antibody (Cell Signaling; #4912) and an anti-GST antibody (Cell Signaling; #5475S).

[2] = target: T2, myc-TEAD1:GFP-YAP complexes (Homo sapiens, UniProt P28347); experiment: Co-immunoprecipitation of myc-TEAD1 and GFP-YAP; format: binding; conditions: 200 μM CPD3
T2 construct: #17843 (GFP-YAP1); host or cells: HeLa
T2 sequence (P28347 whole entry, one chain of several): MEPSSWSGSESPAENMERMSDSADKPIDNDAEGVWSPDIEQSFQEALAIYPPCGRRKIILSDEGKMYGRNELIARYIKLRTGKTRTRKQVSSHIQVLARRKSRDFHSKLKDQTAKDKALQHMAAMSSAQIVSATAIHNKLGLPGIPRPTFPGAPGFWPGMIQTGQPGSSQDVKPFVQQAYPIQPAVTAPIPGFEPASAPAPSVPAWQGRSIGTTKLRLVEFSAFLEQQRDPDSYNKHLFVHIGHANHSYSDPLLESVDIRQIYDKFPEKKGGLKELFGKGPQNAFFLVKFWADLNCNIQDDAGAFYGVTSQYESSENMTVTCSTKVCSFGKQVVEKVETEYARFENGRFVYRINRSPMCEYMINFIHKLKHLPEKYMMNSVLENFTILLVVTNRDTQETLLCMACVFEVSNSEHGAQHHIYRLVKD
Method: Figure 1 BUDE screening-identified compound 3 for TEAD inhibition. (A) HeLa cells were stably transduced with a lentiviral viral vector containing 8×TEAD-secreted nanoluciferase reporter gene (TEAD-NLUC). Cells were transfected with non-targeting siRNA (siNEG), siRNA targeting YAP (siYAP), control adenoviral vector or an adenovirus expression constitutively active YAPS127A (Ad:YAP). Culture media were conditioned for 6 h and assayed for secreted nanoluciferase activity (n = 3). (B) HeLa cells stably transduced with TEAD-NLUC were treated with 100 μM of indicated compound for 6 h. Cell conditioned media were assayed for nanoluciferase activity (n = 3). […] (D) Recombinant GST-TEAD1 protein bound to glutathione resin was incubated with 200 μM of the indicated compounds and HEK293 cell lysate containing endogenous YAP protein for 18 h at 4 °C. The resin was washed, and bound YAP eluted and quantified by Western blotting (n = 2). […] Co-immunoprecipitated YAP or TEAD was quantified by Western blotting. […]
HeLa cells were transiently transfected with either pRK5-myc-TEAD1 (Addgene #33109) or pEGFP-C3-YAP1 (Addgene #17843). […] Following washing, immunoprecipitated proteins were eluted by boiling in sodium dodecyl sulfate (SDS) buffer (50 mM Tris pH 6.8, 20% glycerol, 2% SDS) and analyzed by Western blotting.

RaVSMCs = experiment: EdU proliferation assay in RaVSMCs; format: cell-based, rat; conditions: 18 h then 6 h 10 μM EdU
Method: Cell proliferation was measured using the Click-iT EdU 488 assay (Sigma-Aldrich). Briefly, the cells were treated with indicated concentrations of compounds for 24 h with the last 4 h being in the presence of 10 μM EdU. The cells were fixed in 4% formaldehyde and stained for EdU incorporation, following the kit’s standard protocol. The cells were counterstained with Hoechst 33342 nucleic acid for 20 min. Fluorescent images of at least three fields of view per well were counted using ImageJ software. Real-time analysis of cell migration was performed using an IncuCyte ZOOM live cell imaging system (Essen BioScience) according to the manufacturer’s instructions. Briefly, the cells were seeded (1.2 × 10^4 cells/well for HeLa cells, 1.5 × 10^4 cells/well for RaVSMCs, and 1 × 10^4 cells/well) into ImageLock 96-well plates. After 36 h, the cells were pretreated overnight with indicated concentrations of compounds. The wells were scratched using a WoundMaker tool, and the media were replaced containing test compounds. Phase contrast images of cell migration into the wounded area were acquired hourly for 24 h. Relative wound confluence was calculated using the Cell Migration Image analysis module of the IncuCyte ZOOM software.

Compound	proliferation of MCF7 cells (EdU) (MCF7 cells)	inhibition of binding of YAP protein to GST-TEAD1 [1]	binding of GFP-YAP to immunoprecipitated myc-TEAD1 (myc-Trap co-IP) [2]	binding of myc-TEAD1 to affinity-purified GFP-YAP (GFP-Trap co-IP) [2]	cell proliferation (EdU incorporation) (RaVSMCs)
Cc1ccc2c(c1)c1c3n2CCNC3CCC1 (centres unmarked) [CPD3.1]	did not inhibit the proliferation of MCF7 cells				
Cc1ccc2c(c1)c1c3n2CCN(CC(O)CN2CCN(C(=O)c4ccco4)CC2)C3CCC1 (centres unmarked) [CPD3]		inhibit the binding of YAP protein	inhibited binding of GFP–YAP	inhibited binding of myc-TEAD1	dose-dependently inhibited cell proliferation
